From patent US20260184710A1, “CASITAS B-LINEAGE LYMPHOMA PROTOONCOGENE B (CBL-B) DEGRADING COMPOUNDS AND ASSOCIATED METHODS OF USE” (Arvinas Operations, Inc., priority 2022, published 2026)

What was measured:
Cbl-b [1] = biological target: T1, Cbl-b (Homo sapiens, UniProt Q13191); experiment: Cbl-b Degradation Method A (FACS, anti-Cbl-b antibody staining); assay type: cell-based; conditions: Cbl-b-HiBit KI Jurkat Cells, incubated at least 20 hours; for DC50: half maximal degradation, read-out: Cbl-b Degredation Method A IC50; for Dmax: Jurkat, maximum degradation observed, read-out: Cbl-b Degredation Method A Dmax (%)
T1 construct: Cbl-b-HiBit KI Jurkat Cells were purchased from Promega; host or cells: Cbl-b-HiBiT knock-in Jurkat cells
Method in brief: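 Cbl-b-HiBit KI Jurkat cells treated with compound for at least 20 h at 37 °C, then fixed, permeabilized and stained with anti-Cbl-b antibody plus anti-rabbit AF488 secondary. Cbl-b levels read by FACS; DC50 and Dmax (percent of control) derived.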

Cbl-b [2] = biological target: T1, Cbl-b; experiment: Cbl-b Degradation Method B (Nano-Glo HiBiT lytic detection); assay type: cell-based; conditions: Cbl-b-HiBit KI Jurkat Cells, incubated at least 6-24 hours; for DC50: half maximal degradation, read-out: Cbl-b Degredation Method B IC50; for Dmax / Cbl-b Degredation Method B Dmax (%): maximum degradation observed; for Dmax: read-out: Cbl-b Degredation Method B Dmax (%)
Method in brief: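 Cbl-b-HiBiT knock-in Jurkat cells (20,000/well) were treated after ~24 h plating with an 11-point 1:3 series for 6-24 h at 37° C. Remaining Cbl-b measured by Nano-Glo HiBiT lytic luminescence. DC50 and Dmax expressed as % of control.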

T1 sequence (Q13191 whole entry): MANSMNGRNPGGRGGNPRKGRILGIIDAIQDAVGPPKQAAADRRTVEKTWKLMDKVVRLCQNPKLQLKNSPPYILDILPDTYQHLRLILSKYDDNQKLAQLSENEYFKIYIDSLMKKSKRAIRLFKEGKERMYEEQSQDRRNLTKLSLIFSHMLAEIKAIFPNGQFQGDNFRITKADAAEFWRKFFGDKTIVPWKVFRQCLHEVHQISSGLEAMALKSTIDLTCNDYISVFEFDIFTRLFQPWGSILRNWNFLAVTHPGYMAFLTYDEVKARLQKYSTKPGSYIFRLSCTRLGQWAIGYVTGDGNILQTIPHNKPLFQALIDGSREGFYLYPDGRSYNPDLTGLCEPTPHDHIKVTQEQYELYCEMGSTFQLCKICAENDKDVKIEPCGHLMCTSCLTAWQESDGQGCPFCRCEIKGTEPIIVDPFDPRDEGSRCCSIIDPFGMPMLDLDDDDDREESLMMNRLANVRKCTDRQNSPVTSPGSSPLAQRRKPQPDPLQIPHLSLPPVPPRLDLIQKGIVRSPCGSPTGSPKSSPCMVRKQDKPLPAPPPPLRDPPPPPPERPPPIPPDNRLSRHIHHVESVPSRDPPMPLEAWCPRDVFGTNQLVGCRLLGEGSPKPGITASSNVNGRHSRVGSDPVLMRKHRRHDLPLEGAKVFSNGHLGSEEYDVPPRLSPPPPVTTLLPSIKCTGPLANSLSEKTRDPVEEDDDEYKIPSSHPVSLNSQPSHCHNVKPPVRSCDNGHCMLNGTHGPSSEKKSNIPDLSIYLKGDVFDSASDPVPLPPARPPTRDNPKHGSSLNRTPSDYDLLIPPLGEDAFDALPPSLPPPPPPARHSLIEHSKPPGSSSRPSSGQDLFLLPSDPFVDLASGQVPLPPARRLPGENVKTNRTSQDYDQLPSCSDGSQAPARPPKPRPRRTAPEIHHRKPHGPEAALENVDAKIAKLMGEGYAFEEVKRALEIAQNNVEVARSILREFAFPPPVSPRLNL

Row | DC50 (Cbl-b [1]) [nM] | Dmax (Cbl-b [1]) [%] | DC50 (Cbl-b [2]) [nM] | Dmax (Cbl-b [2]) [%] | Cbl-b Degredation Method B Dmax (%) (Cbl-b [2]) | SMILES
1 | 5 to 50 | 35 to 70 | < 5 | < 35 | – | CC1c2cc(N3CCC(CN4CCC5(CC4)CN(c4cc6c(c(C(F)(F)F)c4)CN(c4cccc(C7(Cc8nncn8C)COC7)c4)C6=O)C5)CC3)ccc2C(=O)N1C1CCC(=O)NC1=O (stereo not drawn) [Example 138, 3-{3-methyl-5-[4-({2-[2-(3-{3-[(4-methyl-4H-1,2,4-triazol-3-yl)methyl]oxetan-3-yl}phenyl)-3-oxo-7-(trifluoromethyl)-2,3-dihydro-1H-isoindol-5-yl]-2,7-diazaspiro[3.5]nonan-7-yl}methyl)piperidin-1-yl]-1-oxo-2,3-dihydro-1H-isoindol-2-yl}piperidine-2,6-dione]
2 | 50 to 500 | 35 to 70 | 5 to 50 | – | C (C ≤ 35) | Cn1cnnc1C[C@]1(c2cccc(N3Cc4c(cc(CN5CCN(C[C@H]6CC[C@H](OC7CCN(c8cccc9c8nc(OC(F)F)n9C8CCC(=O)NC8=O)CC7)CC6)CC5(C)C)cc4C(F)(F)F)C3=O)c2)C[C@H](C#N)C1 (stereo partly drawn) [Example 325, (1r,3r)-3-(3-{6-[(2,2-dimethyl-4-{[(1r,4r)-4-({1-[2-(difluoromethoxy)-1-(2,6-dioxopiperidin-3-yl)-1H-1,3-benzodiazol-4-yl]piperidin-4-yl}oxy)cyclohexyl]methyl}piperazin-1-yl)methyl]-1-oxo-4-(trifluoromethyl)-2,3-dihydro-1H-isoindol-2-yl}phenyl)-3-[(4-methyl-4H-1,2,4-triazol-3-yl)methyl]cyclobutane-1-carbonitrile]
3 | 5 to 50 | 35 to 70 | < 5 | – | C (C ≤ 35) | CC(C)n1c(=O)n(C2CCC(=O)NC2=O)c2cccc(N3CCC(O[C@H]4CC[C@H](CN5CC6(CN(Cc7cc8c(c(C(F)(F)F)c7)CN(c7cccc([C@]9(Cc%10nncn%10C)C[C@@H](C#N)C9)c7)C8=O)C6)C5)CC4)CC3)c21 (stereo partly drawn) [Example 327, (1r,3r)-3-[(4-methyl-4H-1,2,4-triazol-3-yl)methyl]-3-(3-{1-oxo-6-[(6-{[(1r,4r)-4-({1-[1-(2,6-dioxopiperidin-3-yl)-2-oxo-3-(propan-2-yl)-2,3-dihydro-1H-1,3-benzodiazol-4-yl]piperidin-4-yl}oxy)cyclohexyl]methyl}-2,6-diazaspiro[3.3]heptan-2-yl)methyl]-4-(trifluoromethyl)-2,3-dihydro-1H-isoindol-2-yl}phenyl)cyclobutane-1-carbonitrile]
4 | 50 to 500 | 35 to 70 | < 5 | – | C (C ≤ 35) | Cn1cnnc1CC1(c2cccc(N3Cc4c(cc(CN5CCC[C@@H](CN6CCN(C[C@H]7CC[C@H](OC8CCN(c9ccc%10c(c9F)CN(C9CCC(=O)NC9=O)C%10=O)CC8)CC7)CC6(C)C)C5)cc4C(F)(F)F)C3=O)c2)COC1 (stereo partly drawn) [Example 286, 3-[4-fluoro-1-oxo-5-(4-{[(1r,4r)-4-[(3,3-dimethyl-4-{[(3R)-1-{[2-(3-{3-[(4-methyl-4H-1,2,4-triazol-3-yl)methyl]oxetan-3-yl}phenyl)-3-oxo-7-(trifluoromethyl)-2,3-dihydro-1H-isoindol-5-yl]methyl}piperidin-3-yl]methyl}piperazin-1-yl)methyl]cyclohexyl]oxy}piperidin-1-yl)-2,3-dihydro-1H-isoindol-2-yl]piperidine-2,6-dione]
5 | 5 to 50 | < 35 | > 500 | – | – | Cn1cnnc1CC1(c2cccc(N3Cc4c(cc(CN5CCN(C6CC7(C6)CN(c6ccc8c(c6)C(=O)N(C6CCC(=O)NC6=O)C8=O)C7)CC5)cc4C(F)(F)F)C3=O)c2)COC1 (stereo not drawn) [Example 107, 2-(2,6-dioxopiperidin-3-yl)-5-[6-(4-{[2-(3-{3-[(4-methyl-4H-1,2,4-triazol-3-yl)methyl]oxetan-3-yl}phenyl)-3-oxo-7-(trifluoromethyl)-2,3-dihydro-1H-isoindol-5-yl]methyl}piperazin-1-yl)-2-azaspiro[3.3]heptan-2-yl]-2,3-dihydro-1H-isoindole-1,3-dione]
6 | 50 to 500 | > 70 | 5 to 50 | – | C (C ≤ 35) | CC(C)n1c(=O)n(C2CCC(=O)NC2=O)c2cccc(N3CCC(O[C@H]4CC[C@H](CN5CCN(Cc6cc7c(c(C(F)(F)F)c6)CN(c6cccc([C@]8(Cc9nncn9C)C[C@@H](C#N)C8)c6)C7=O)C6(COC6)C5)CC4)CC3)c21 (stereo partly drawn) [Example 322, (1r,3r)-3-[(4-methyl-4H-1,2,4-triazol-3-yl)methyl]-3-(3-{1-oxo-6-[(8-{[(1r,4r)-4-({1-[1-(2,6-dioxopiperidin-3-yl)-2-oxo-3-(propan-2-yl)-2,3-dihydro-1H-1,3-benzodiazol-4-yl]piperidin-4-yl}oxy)cyclohexyl]methyl}-2-oxa-5,8-diazaspiro[3.5]nonan-5-yl)methyl]-4-(trifluoromethyl)-2,3-dihydro-1H-isoindol-2-yl}phenyl)cyclobutane-1-carbonitrile]
7 | < 5 | > 70 | < 5 | 35 to 70 | – | Cn1cnnc1C[C@]1(c2cccc(N3Cc4c(cc(CN5CCN(C[C@H]6CC[C@H](OC7CCN(c8ccc9c(c8)n(C)c(=O)n9C8CCC(=O)NC8=O)CC7)CC6)CC5)cc4C(F)(F)F)C3=O)c2)C[C@H](C#N)C1 (stereo partly drawn) [Example 215, (1r,3r)-3-[(4-methyl-4H-1,2,4-triazol-3-yl)methyl]-3-(3-{1-oxo-6-[(4-{[(1r,4r)-4-({1-[1-(2,6-dioxopiperidin-3-yl)-3-methyl-2-oxo-2,3-dihydro-1H-1,3-benzodiazol-5-yl]piperidin-4-yl}oxy)cyclohexyl]methyl}piperazin-1-yl)methyl]-4-(trifluoromethyl)-2,3-dihydro-1H-isoindol-2-yl}phenyl)cyclobutane-1-carbonitrile]
8 | 5 to 50 | < 35 | > 500 | – | – | Cn1cnnc1C1(c2cccc(N3Cc4c(cc(CN5CCC[C@H](CN6CCN(C[C@H]7CC[C@@H](OC8CCN(c9ccc%10c(c9F)CN(C9CCC(=O)NC9=O)C%10=O)CC8)CC7)CC6)C5)cc4C(F)(F)F)C3=O)c2)COC1 (stereo partly drawn) [Example 161, 3-[4-fluoro-1-oxo-5-(4-{[(1r,4r)-4-[(4-{[(3S)-1-[(2-{3-[3-(4-methyl-4H-1,2,4-triazol-3-yl)oxetan-3-yl]phenyl}-3-oxo-7-(trifluoromethyl)-2,3-dihydro-1H-isoindol-5-yl)methyl]piperidin-3-yl]methyl}piperazin-1-yl)methyl]cyclohexyl]oxy}piperidin-1-yl)-2,3-dihydro-1H-isoindol-2-yl]piperidine-2,6-dione]
9 | 5 to 50 | < 35 | 5 to 50 | – | C (C ≤ 35) | CC1c2c(cc(CN3CCC[C@H](CN4CCN(C[C@H]5CC[C@H](OC6CCN(c7ccc8c(c7F)CN(C7CCC(=O)NC7=O)C8=O)CC6)CC5)CC4(C)C)C3)cc2C(F)(F)F)C(=O)N1c1cccc(C2(Cc3nncn3C)COC2)c1 (stereo partly drawn) [Example 276, 3-(5-(4-(((1S,4r)-4-((3,3-dimethyl-4-(((3S)-1-((1-methyl-2-(3-(3-((4-methyl-4H-1,2,4-triazol-3-yl)methyl)oxetan-3-yl)phenyl)-3-oxo-7-(trifluoromethyl)isoindolin-5-yl)methyl)piperidin-3-yl)methyl)piperazin-1-yl)methyl)cyclohexyl)oxy)piperidin-1-yl)-4-fluoro-1-oxoisoindolin-2-yl)piperidine-2,6-dione]
10 | > 500 | < 35 | > 500 | – | – | C[C@H]1C[C@@H](CN2CCN(c3cccc4c3C(=O)N(C3CCC(=O)NC3=O)C4=O)CC2)CN(Cc2cc3c(c(C(F)(F)F)c2)CN(c2cccc(C4(Cc5nncn5C)COC4)c2)C3=O)C1 (stereo partly drawn) [Example 90, 2-(2,6-dioxopiperidin-3-yl)-4-(4-{[(3R,5S)-5-methyl-1-{[2-(3-{3-[(4-methyl-4H-1,2,4-triazol-3-yl)methyl]oxetan-3-yl}phenyl)-3-oxo-7-(trifluoromethyl)-2,3-dihydro-1H-isoindol-5-yl]methyl}piperidin-3-yl]methyl}piperazin-1-yl)-2,3-dihydro-1H-isoindole-1,3-dione]
11 | 5 to 50 | < 35 | 5 to 50 | < 35 | – | Cn1cnnc1CC1(c2cccc(N3Cc4c(cc(CN5CCC[C@H](CN6CCC(CN7CC8(C7)CN(c7ccc9c(c7)C(=O)N(C7CCC(=O)NC7=O)C9=O)C8)CC6)C5)cc4C(F)(F)F)C3=O)c2)COC1 (stereo partly drawn) [Example 114, 2-(2,6-dioxopiperidin-3-yl)-5-{6-[(1-{[(3R)-1-{[2-(3-{3-[(4-methyl-4H-1,2,4-triazol-3-yl)methyl]oxetan-3-yl}phenyl)-3-oxo-7-(trifluoromethyl)-2,3-dihydro-1H-isoindol-5-yl]methyl}piperidin-3-yl]methyl}piperidin-4-yl)methyl]-2,6-diazaspiro[3.3]heptan-2-yl}-2,3-dihydro-1H-isoindole-1,3-dione]
12 | 5 to 50 | 35 to 70 | < 5 | 35 to 70 | – | Cn1cnnc1CC1(c2cccc(N3Cc4c(cc(N5CC6(CCN(CC7CN(c8ccc9c(c8)C(=O)N(C8CCC(=O)NC8=O)C9=O)C7)CC6)C5)cc4C(F)(F)F)C3=O)c2)COC1 (stereo not drawn) [Example 132, 2-(2,6-dioxopiperidin-3-yl)-5-[3-({2-[2-(3-{3-[(4-methyl-4H-1,2,4-triazol-3-yl)methyl]oxetan-3-yl}phenyl)-3-oxo-7-(trifluoromethyl)-2,3-dihydro-1H-isoindol-5-yl]-2,7-diazaspiro[3.5]nonan-7-yl}methyl)azetidin-1-yl]-2,3-dihydro-1H-isoindole-1,3-dione]
